Each molecule was assayed on P. falciparum (NF54 or 3D7 strain) (assay: Assay for P. falciparum proliferation in infected human blood cells (SYBR Green)). Settings: NF54 or 3D7 infected human erythrocytes, 72 hours; read-out: EC50 (nM), inhibitory efficacy in delaying P. falciparum proliferation in infected human blood cells.
Type: cell-based, Plasmodium falciparum
How it was run: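 Infected erythrocytes (NF54 or 3D7; final 2.5% hematocrit, 0.3% parasitemia) were incubated with compounds for 72 h at 37 °C in low oxygen (3% O2, 4% CO2, 93% N2).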

For `O=C(c1cn2c(-c3ccc(C(F)(F)F)cc3)cnc2cn1)N1CCOc2ccccc21` [Compound 306, ({3-[4-(trifluoromethyl)phenyl]imidazo[1,2-a]pyrazin-6-yl}carbonyl)-3,4-dihydro-2H-1,4-benzoxazine], the EC50 was 607 nM.

Same assay, conditions: Plasmodium falciparum, 3D7|NF54, Erythrocyte, in Homo sapiens, 72 h, NF54 or 3D7 infected human erythrocytes, 72 hours; read-out: EC50 (nM), inhibitory efficacy in delaying P. falciparum proliferation in infected human blood cells

Work on `CN(C(=O)c1cn2c(-c3ccc(-n4ccnc4)cc3)cnc2cn1)c1ccc(C#N)cc1` [Compound 146] yielded an EC50 of 462 nM.

Same assay, conditions: Plasmodium falciparum, Erythrocyte, 72 h, NF54 or 3D7 infected human erythrocytes, 72 hours; read-out: EC50 (nM), inhibitory efficacy in delaying P. falciparum proliferation in infected human blood cells

Compared with `N#Cc1ccc2c(c1)CCCN2C(=O)c1cn2c(-c3ccc(C(F)(F)F)cc3)cnc2cn1` [Compound 274, 1-({3-[4-(trifluoromethyl)phenyl]imidazo[1,2-a]pyrazin-6-yl}carbonyl)-1,2,3,4-tetrahydroquinoline-6-carbonitrile], `N#Cc1ccc(CNC(=O)c2cn3c(-c4ccc(C(F)(F)F)cc4)cnc3cn2)cc1` [Compound 362, -[(4-cyanophenyl)methyl]-3-[4-(trifluoromethyl)phenyl]imidazo[1,2-a]pyrazine-6-carboxamide] is 29-fold higher in EC50: 224 nM for the first, 6470 nM for the second. The first is the more potent here.

`CN(C(=O)c1cn2c(-c3ccc(S(C)(=O)=O)cc3)cnc2cn1)c1ccc(C#N)cc1` [Compound 129, N-(4-cyanophenyl)-3-(4-methanesulfonylphenyl)-N-methylimidazo[1,2-a]pyrazine-6-carboxamide] and `CN(C(=O)c1cn2c(-c3ccc(OCC(F)(F)F)cc3)cnc2cn1)c1ccc(C#N)cc1` [Compound 138, N-(4-cyanophenyl)-N-methyl-3-[4-(2,2,2-trifluoroethoxy)phenyl]imidazo[1,2-a]pyrazine-6-carboxamide] are within 1.5-fold of each other in EC50: 800 nM for the first, 849 nM for the second.

Compared with `CN(C(=O)c1cn2c(-c3ccc4[nH]ccc4c3)cnc2cn1)c1ccc(Cl)nc1` [Compound 301, N-(6-chloropyridin-3-yl)-3-(1H-indol-5-yl)-N-methylimidazo[1,2-a]pyrazine-6-carboxamide], `CN(C(=O)c1cn2c(-c3cnc4[nH]ccc4c3)cnc2cn1)c1ccc(Cl)nc1` [Compound 312, N-(6-chloropyridin-3-yl)-N-methyl-3-{1H-pyrrolo[2,3-b]pyridin-5-yl}imidazo[1,2-a]pyrazine-6-carboxamide] is 2.2-fold higher in EC50: 1200 nM for the first, 2640 nM for the second.

Compared with `COc1ccc(-c2cnc3cnc(C(=O)N(C)c4ccc(F)cc4)cn23)cc1` [Compound 69, N-(4-fluorophenyl)-3-(4-methoxyphenyl)-N-methylimidazo[1,2-a]pyrazine-6-carboxamide], `CN(C(=O)c1cn2c(-c3ccc(-c4ccn[nH]4)cc3)cnc2cn1)c1ccc(C#N)cc1` [Compound 481, N-(4-cyanophenyl)-N-methyl-3-[4-(1H-pyrazol-5-yl)phenyl]imidazo[1,2-a]pyrazine-6-carboxamide] is 2.5-fold lower in EC50: 85 nM for the first, 34 nM for the second.

First: CC1CCN(c2nc(-c3cnc4cnc(C(=O)N(C)c5ccc(C#N)cc5)cn34)cs2)CC1 [Compound 198, N-(4-cyanophenyl)-N-methyl-3-[2-(4-methylpiperidin-1-yl)-1,3-thiazol-4-yl]imidazo[1,2-a]pyrazine-6-carboxamide]
Second: CN1CCc2cc(-c3cnc4cnc(C(=O)N(C)c5ccc(C#N)cc5)cn34)ccc21 [Compound 201, N-(4-cyanophenyl)-N-methyl-3-(1-methyl-2,3-dihydro-1H-indol-5-yl)imidazo[1,2-a]pyrazine-6-carboxamide]
The EC50 of the first is higher: over 10000 nM for the first, 1080 nM for the second. The second is the more potent here.

Compared with `CN(C(=O)c1cn2c(-c3ccc(C(F)(F)F)cc3)cnc2cn1)c1ccc(C2CCC2)cn1` [Compound 382, N-(5-cyclobutylpyridin-2-yl)-N-methyl-3-[4-(trifluoromethyl)phenyl]imidazo[1,2-a]pyrazine-6-carboxamide], `Cc1cnc(N(C)C(=O)c2cn3c(-c4ccc(C(F)(F)F)cc4)cnc3cn2)cn1` [Compound 327, N-methyl-N-(5-methylpyrazin-2-yl)-3-[4-(trifluoromethyl)phenyl]imidazo[1,2-a]pyrazine-6-carboxamide] is 2.5-fold lower in EC50: 8400 nM for the first, 3310 nM for the second.

First: CN(C(=O)c1cn2c(-c3ccc(C(C)(F)F)cc3)cnc2cn1)c1ccc(Cl)nc1 [Compound 237, N-(6-chloropyridin-3-yl)-3-[4-(1,1-difluoroethyl)phenyl]-N-methylimidazo[1,2-a]pyrazine-6-carboxamide]
Second: CN(C(=O)c1cn2c(-c3ccc(C(F)(F)F)cc3)cnc2cn1)c1ccc(C(F)(F)F)nc1 [Compound 239, N-methyl-3-[4-(trifluoromethyl)phenyl]-N-[6-(trifluoromethyl)pyridin-3-yl]imidazo[1,2-a]pyrazine-6-carboxamide]
The EC50 of the first is 69-fold lower: 100 nM for the first, 6880 nM for the second. The first is the more potent here.

`CN(C(=O)c1cn2c(-c3ccc(C(F)(F)F)cc3)cnc2cn1)c1ccccn1` [Compound 99, N-methyl-N-(pyridin-2-yl)-3-[4-(trifluoromethyl)phenyl]imidazo[1,2-a]pyrazine-6-carboxamide] and `Cc1cccnc1N(C)C(=O)c1cn2c(-c3ccc(C(F)(F)F)cc3)cnc2cn1` [Compound 390, N-methyl-N-(3-methylpyridin-2-yl)-3-[4-(trifluoromethyl)phenyl]imidazo[1,2-a]pyrazine-6-carboxamide] are within 1.5-fold of each other in EC50: 3880 nM for the first, 2650 nM for the second.

Compared with `CN(C(=O)c1cn2c(-c3ccc(C(F)(F)F)cc3)cnc2cn1)c1ccc(-c2cnn(C)c2)cc1` [Compound 51, N-methyl-N-[4-(1-methyl-1H-pyrazol-4-yl)phenyl]-3-[4-(trifluoromethyl)phenyl]imidazo[1,2-a]pyrazine-6-carboxamide], `CN(C(=O)c1cn2c(-c3ccc(C(F)(F)F)cc3)cnc2cn1)c1ccc(-n2cncn2)cc1` [Compound 313, N-methyl-N-[4-(1H-1,2,4-triazol-1-yl)phenyl]-3-[4-(trifluoromethyl)phenyl]imidazo[1,2-a]pyrazine-6-carboxamide] is lower in EC50: over 9720 nM for the first, 1320 nM for the second.

`CN(C(=O)c1cn2c(-c3ccc(C(F)(F)F)cc3)cnc2cn1)c1nccs1` [Compound 356, N-methyl-N-(1,3-thiazol-2-yl)-3-[4-(trifluoromethyl)phenyl]imidazo[1,2-a]pyrazine-6-carboxamide] and `CN(C(=O)c1cn2c(-c3ccc(C(F)(F)F)cc3)cnc2cn1)c1cc(C(F)(F)F)ccn1` [Compound 348, N-methyl-3-[4-(trifluoromethyl)phenyl]-N-[4-(trifluoromethyl)pyridin-2-yl]imidazo[1,2-a]pyrazine-6-carboxamide] are within 1.5-fold of each other in EC50: 6680 nM for the first, 4690 nM for the second.

First: CNc1nnc(-c2ccc(-c3cnc4cnc(C(=O)N(C)c5ccc(Cl)nc5)cn34)cc2)s1 [Compound 262, N-(6-chloropyridin-3-yl)-N-methyl-3-{4-[5-(methylamino)-1,3,4-thiadiazol-2-yl]phenyl}imidazo[1,2-a]pyrazine-6-carboxamide]
Second: CN(C(=O)c1cn2c(-c3ccc(C(F)(F)F)cc3F)cnc2cn1)c1ccc(Cl)nc1 [Compound 275, N-(6-chloropyridin-3-yl)-3-[2-fluoro-4-(trifluoromethyl)phenyl]-N-methylimidazo[1,2-a]pyrazine-6-carboxamide]
The EC50 of the first is 4.8-fold lower: 97 nM for the first, 468 nM for the second. The first is the more potent here.

First: CC1(C)CCc2cc(F)ccc2N1C(=O)c1cn2c(-c3ccc(C(N)=O)cc3)cnc2cn1 [Compound 229, 4-{6-[(6-fluoro-2,2-dimethyl-1,2,3,4-tetrahydroquinolin-1-yl)carbonyl]imidazo[1,2-a]pyrazin-3-yl}benzamide]
Second: CN(Cc1cn2c(-c3ccc(OC(F)F)cc3)cnc2cn1)c1ccc(C#N)cc1 [Compound 479, 4-[({3-[4-(difluoromethoxy)phenyl]imidazo[1,2-a]pyrazin-6-yl}methyl)(methyl)amino]benzonitrile]
The EC50 of the first is 1.8-fold lower: 19 nM for the first, 35 nM for the second.

From patent publication US20150291598A1 (NOVARTIS AG, priority 2012, published 2015)
